In patent US7304093B2, “Ketone compounds and compositions for cholesterol management and related uses” (Esperion Therapeutics, Inc., priority 2000, dated 2007) one finds change in vivo, IC50 and melting point data, which are given here for nine compounds.

The term IC50 denotes the point on the concentration scale where inhibition reaches its midpoint. By melting point is commonly meant the temperature of the solid-liquid transition.

For one data set, the system named is female obese Zucker rats. Briefly: Serum lipid and glycemic control variables in chow-fed obese female Zucker rats, daily oral gavage for two weeks. The conditions noted are these: Rattus norvegicus; for change in vivo at 30 mg/kg: 30 mg/kg daily oral, Table 9; for change in vivo at 100 mg/kg: 100 mg/kg daily oral, 100% = 2-fold increase, Table 8. Format: in vivo, rat. As to the method: Ten- to twelve-week old (400-500 grams) female Zucker fatty rats Cr1: (Zuc)-faBR were obtained from Charles River Laboratories. Animals were acclimated to the laboratory environment for seven days. During the acclimation and study period, animals were housed by group in shoebox polycarbonate cages on Cellu-Dri bedding. The temperature and humidity in the animals' quarters (68-78° F.; 30-75% RH) were monitored and the airflow in the room was sufficient to provide several exchanges per hour with 100% fresh filtered air. An automatic timing device provided an alternating 12-hour cycle of light and dark. Rats received pelleted Purina Laboratory Rodent Chow® (5001) prior to and during the drug intervention period except for a 6-hour phase prior to blood sampling. Fresh water was supplied ad libitum via an automatic watering system. Compounds were dissolved, suspended by mixing in a dosing vehicle consisting of 1.5% carboxymethylcellulose/0.2% Tween 20 or 20% ethanol and 80% polyethylene glycol-200 [v/v]. Dose volume of vehicle or vehicle plus each compound was set at 0.25% of body weight in order to deliver the appropriate dose. Doses were administered daily by oral gavage, approximately between 8-10 AM. Regarding blood sampling, animals were fasted for 6 hours prior to all blood collections. Prior to and after 7 days of dosing, a 1.0- to 2.0-mL sample of blood was collected by administering O2/CO2 anesthesia and bleeding from the orbital venous plexus. Following 14 days of dosing, blood was collected by cardiac puncture after euthanasia with CO2. All blood samples were processed for separation of serum and stored at −80° C. until analysis. Commercially available kits were used to determine serum triglycerides (Roche Diagnostic Corporation, Kit No. 148899 or Boehringer Mannheim, Kit No. 1488872), total cholesterol (Roche Diagnostic Corporation, Kit No. 450061), non-esterified fatty acids (Wako Chemicals, Kit No. 994-75409) and β-hydroxybutyrate (Wako Chemicals, Kit No. 417-73501 or Sigma Kit. No. 310-0) on a Hitachi 912 Automatic Analyzer (Roche Diagnostic Corporation). In some instances, an in-house cholesterol reagent was used to determine total serum cholesterol levels. Serum lipoprotein cholesterol levels were determined by lipoprotein profile analysis. Lipoprotein profiles were analyzed using gel-filtration chromatography on a Superose 6HR (1×30 cm) column equipped with on-line detection of total cholesterol as described by Kieft et al (Kieft, K. A.; Bocan, T. M.; Krause, B. R. Rapid on-line determination of cholesterol distribution among plasma lipoproteins after high-performance gel filtration chromatography. J. Lipid Res. 1991, 32, 859-866.). The total cholesterol content of each lipoprotein was calculated by multiplying the independent values determined for serum total cholesterol by the percent area of each lipoprotein in the profile. The percent body weight gain and the ratio of liver to body weight is also determined. Selected data are shown as absolute values or as a percent change of the pretreatment values in Tables 8 and 9.
Select compounds (214c, 210c, and 210g) were further evalutated in the Zucker rat by performing a full dose response and measuring additional scrum variables including markers for diabetes (Tables 10-12).

The subject of the next data set is primary rat hepatocytes. In words: Inhibition of lipid synthesis ([1-14C]-acetate incorporation) in primary cultures of rat hepatocytes. The conditions noted are these: Hepatocyte, 4 h incubation with [1-14C]-acetate. It counts as cell-based. As to the method:
Compounds were tested for inhibition of lipid synthesis in primary cultures of rat hepatocytes. Male Sprague-Dawley rats were anesthetized with intraperitoneal injection of sodium pentobarbital (80 mg/kg). Rat hepatocytes were isolated essentially as described by the method of Seglen (Seglen, P. O. Hepatocyte suspensions and cultures as tools in experimental carcinogenesis. J. Toxicol. Environ. Health 1979, 5, 551-560). Hepatocytes were suspended in Dulbecco's Modified Eagles Medium containing 25 mM D-glucose, 14 mM HEPES, 5 mM L-glutamine, 5 mM leucine, 5 mM alanine, 10 mM lactate, 1 mM pyruvate, 0.2% bovine serum albumin, 17.4 mM non-essential amino acids, 20% fetal bovine serum, […] and 20 μg/mL gentamycin) and plated at a density of 1.5×10^5 cells/cm^2 on collagen-coated 96-well plates. Four hours after plating, media was replaced with the same media without serum. Cells were grown overnight to allow formation of monolayer cultures. Lipid synthesis incubation conditions were initially assessed to ensure the linearity of [1-^14C]-acetate incorporation into hepatocyte lipids for up to 4 hours. Hepatocyte lipid synthesis inhibitory activity was assessed during incubations in the presence of 0.25 μCi [1-^14C]-acetate/well (final radiospecific activity in assay is 1 Ci/mol) and 0, 1, 3, 10, 30, 100 or 300 μM of compounds for 4 hours. At the end of the 4-hour incubation period, medium was discarded and cells were washed twice with ice-cold phosphate buffered saline and stored frozen prior to analysis. To determine total lipid synthesis, 170 μl of MicroScint-E® and 50 μl water was added to each well to extract and partition the lipid soluble products to the upper organic phase containing the scintillant. Lipid radioactivity was assessed by scintillation spectroscopy in a Packard TopCount NXT.

[1] abbreviates: 168 h, 1 wk, read-out: HDL-Cholesterol, Percent Change from Pre-Treatment.
Setting [2] is: 168 h, 1 wk, read-out: NonHDL-Cholesterol, Percent Change from Pre-Treatment.
Setting [3] is: 168 h, 1 wk, read-out: TG, Percent Change from Pre-Treatment.
[4] abbreviates: 336 h, 2 wk, read-out: HDL-Cholesterol, Percent Change from Pre-Treatment.
The mark [5] stands for this setting: 336 h, 2 wk, read-out: NonHDL-Cholesterol, Percent Change from Pre-Treatment.
Setting [6] is: 336 h, 2 wk, read-out: TG, Percent Change from Pre-Treatment.
[7] abbreviates: Table 7, ranges: confidence of estimate insufficient to assign a value.

Where two headings read alike, the source gives them in different places.

Compound `Cc1ccc(C(C)(CCCCC(=O)CCCCC(C)(C(=O)O)c2ccc(C)cc2)C(=O)O)cc1` (stereo not drawn) [Compound 210e, 2,12-Dimethyl-7-oxo-2,12-di-p-tolyltridecanedioic acid] had a melting point of 48 to 50 °C. The change in vivo at 30 mg/kg in the data set on female obese Zucker rats (setting [1]) was 0%. The change in vivo at 30 mg/kg in the data set on female obese Zucker rats (setting [2]) worked out at 0%. The change in vivo at 30 mg/kg in the data set with female obese Zucker rats (setting [3]) was -11%. Moreover, the change in vivo at 30 mg/kg in the data set on female obese Zucker rats (setting [4]) turned out to be 10%. For the same compound, the change in vivo at 30 mg/kg with female obese Zucker rats (setting [5]) was determined as 47%. Further, the change in vivo at 30 mg/kg in the data set on female obese Zucker rats (setting [6]) amounted to 12%. In addition, in the data set with primary rat hepatocytes (setting [7]), the half-maximal inhibitory concentration (IC50) is 100 to 300 µM.

Consider `O=C(CCCCC1(C(=O)O)CCC1)CCCCC1(C(=O)O)CCC1` [Compound 107f, 1-[9-(1-Carboxycyclobutyl)-5-oxononyl]-1-cyclo-butanecarboxylic acid], for which the melting point is 69 to 70 °C. In addition, the change in vivo at 100 mg/kg with female obese Zucker rats (setting [1]) was -1%. The change in vivo at 100 mg/kg with female obese Zucker rats (setting [2]) is -32%. Further, the change in vivo at 100 mg/kg in the data set on female obese Zucker rats (setting [3]) was -58%. The change in vivo at 100 mg/kg with female obese Zucker rats (setting [4]) was 10%. Also, the change in vivo at 100 mg/kg with female obese Zucker rats (setting [5]) is -40%. Moreover, the change in vivo at 100 mg/kg in the data set on female obese Zucker rats (setting [6]) was -59%. 121 µM corresponded to half-maximal inhibition with primary rat hepatocytes (Table 6) (IC50).

As for `CC(C)(CCCCCC(=O)CCCCCC1(C(=O)O)CC1)C(=O)O` [Compound 107k, 13-(1-Carboxycyclopropyl)-2,2-dimethyl-8-oxotridecanoic acid], the melting point was in the range of 65 to 66 °C. For the same compound, the change in vivo at 100 mg/kg in the data set on female obese Zucker rats (setting [1]) stood at 43%. In addition, the change in vivo at 100 mg/kg in the data set on female obese Zucker rats (setting [2]) was -90%. The change in vivo at 100 mg/kg in the data set on female obese Zucker rats (setting [3]) was -93%. Besides, in the data set on female obese Zucker rats (setting [4]), the change in vivo at 100 mg/kg was determined as 84%. For the same compound, the change in vivo at 100 mg/kg with female obese Zucker rats (setting [5]) was -99%. Besides, the change in vivo at 100 mg/kg in the data set with female obese Zucker rats (setting [6]) is -98%. The same compound yielded an IC50 with primary rat hepatocytes (Table 6) of 1 µM.

In turn, `O=C(CCCCCC1(C(=O)O)CC1)CCCCCC1(C(=O)O)CC1` [Compound 107l, 1-[11-(1-Carboxycyclopropyl)-6-oxoundecyl]-1-cyclopropanecarboxylic acid] yielded a melting point of 122 to 123 °C. Further, the change in vivo at 100 mg/kg in the data set with female obese Zucker rats (setting [1]) was 136%. The change in vivo at 100 mg/kg in the data set with female obese Zucker rats (setting [2]) was -92%. Also, the change in vivo at 100 mg/kg in the data set with female obese Zucker rats (setting [3]) was -95%. The change in vivo at 100 mg/kg in the data set with female obese Zucker rats (setting [4]) is 171%. The change in vivo at 100 mg/kg in the data set with female obese Zucker rats (setting [5]) is -83%. In the data set with female obese Zucker rats (setting [6]), the change in vivo at 100 mg/kg was -94%. The half-maximal inhibitory concentration (IC50) in the data set with primary rat hepatocytes (Table 6) stood at 0.5 µM.

In the case of `O=C(CCCCC1(C(=O)O)CCCC1)CCCCC1(C(=O)O)CCCC1` [Compound 107g, 1-[9-(1-Carboxycyclopentyl)-5-oxononyl]-1-cyclopentanecarboxylic acid], the melting point was in the range of 99 to 103 °C. Also, the change in vivo at 100 mg/kg in the data set on female obese Zucker rats (setting [1]) is 36%. The change in vivo at 100 mg/kg in the data set on female obese Zucker rats (setting [2]) is -68%. Further, the change in vivo at 100 mg/kg in the data set with female obese Zucker rats (setting [3]) was -67%. Moreover, in the data set on female obese Zucker rats (setting [4]), the change in vivo at 100 mg/kg amounted to 40%. For the same compound, in the data set with female obese Zucker rats (setting [5]), the change in vivo at 100 mg/kg was -67%. Besides, the change in vivo at 100 mg/kg in the data set with female obese Zucker rats (setting [6]) was -70%. The compound further had a half-maximal inhibitory concentration (IC50) in the data set with primary rat hepatocytes (Table 6) of 113 µM.

In turn, `CC(C)(CCCCC(=O)CCCC(C)(C)C(=O)O)C(=O)O` [Compound 225, 2,2,11,11-Tetramethyl-6-oxododecanedioc acid] came in with a melting point of 72 to 73 °C. Further, the change in vivo at 30 mg/kg with female obese Zucker rats (setting [1]) amounted to 7%. Also, the change in vivo at 30 mg/kg in the data set with female obese Zucker rats (setting [2]) was -17%. Also, the change in vivo at 30 mg/kg in the data set with female obese Zucker rats (setting [3]) is -2%. Further, in the data set on female obese Zucker rats (setting [4]), the change in vivo at 30 mg/kg turned out to be 4%. Moreover, the change in vivo at 30 mg/kg in the data set with female obese Zucker rats (setting [5]) worked out at 92%. Also, the change in vivo at 30 mg/kg with female obese Zucker rats (setting [6]) is -22%. In addition, the concentration for half-maximal inhibition (IC50) with primary rat hepatocytes (setting [7]) is 8 µM.

Compound `O=C(CCCCCC1(C(=O)O)CCCC1)CCCCCC1(C(=O)O)CCCC1` [Compound 107m, 1-[11-(1-Carboxycyclopentyl)-6-oxoundecyl]-1-cyclopentanecarboxylic acid] showed a melting point of 78 to 85 °C. In the data set with female obese Zucker rats (setting [1]), the change in vivo at 100 mg/kg is 12%. Further, in the data set with female obese Zucker rats (setting [2]), the change in vivo at 100 mg/kg was -54%. The change in vivo at 100 mg/kg with female obese Zucker rats (setting [3]) was -63%. Also, the change in vivo at 100 mg/kg in the data set on female obese Zucker rats (setting [4]) was 27%. For the same compound, the change in vivo at 100 mg/kg in the data set on female obese Zucker rats (setting [5]) was -32%. For the same compound, the change in vivo at 100 mg/kg with female obese Zucker rats (setting [6]) is -48%. The compound also showed an IC50 in the data set with primary rat hepatocytes (Table 6) of 2 µM.

In turn, `CC(C)(CCCCC(=O)CCCCC1(C(=O)O)CCC1)C(=O)O` [Compound 107e, 11-(1-Carboxycyclobutyl)-2,2-dimethyl-7-oxoundecanoic acid] returned a melting point of 53 to 55 °C. In addition, in the data set with female obese Zucker rats (setting [1]), the change in vivo at 100 mg/kg was 30%. The change in vivo at 100 mg/kg in the data set with female obese Zucker rats (setting [2]) is 4%. Besides, in the data set on female obese Zucker rats (setting [3]), the change in vivo at 100 mg/kg is -54%. In addition, in the data set on female obese Zucker rats (setting [4]), the change in vivo at 100 mg/kg turned out to be 60%. In addition, the change in vivo at 100 mg/kg in the data set on female obese Zucker rats (setting [5]) was 28%. Further, the change in vivo at 100 mg/kg with female obese Zucker rats (setting [6]) was -51%. In the data set with primary rat hepatocytes (Table 6), this compound showed an IC50 of 6 µM.

The compound `O=C(CCCCC1(C(=O)O)CC1)CCCCC1(C(=O)O)CC1` [Compound 107d, 1-[9-(1-Carboxycyclopropyl)-5-oxononyl]-1-cyclopropanecarboxylic acid] gave a melting point of 132 to 134 °C. Further, the change in vivo at 100 mg/kg in the data set on female obese Zucker rats (setting [1]) was found to be 180%. The change in vivo at 100 mg/kg in the data set with female obese Zucker rats (setting [2]) stood at 22%. Besides, the change in vivo at 100 mg/kg in the data set on female obese Zucker rats (setting [3]) is -51%. Further, the change in vivo at 100 mg/kg in the data set on female obese Zucker rats (setting [4]) stood at 260%. Also, the change in vivo at 100 mg/kg in the data set with female obese Zucker rats (setting [5]) amounted to 63%. The change in vivo at 100 mg/kg in the data set with female obese Zucker rats (setting [6]) was -28%. For the same compound, the IC50 in the data set with primary rat hepatocytes (Table 6) was 0.3 µM.
